For one assay, the system named is Cytomegalovirus. Description: Viral Suspension Assay, Cytomegalovirus. The class given is cell-based. As to the method: (§1) The Viral Suspension Assay was used to evaluate the antiviral properties of Alexidine against Adenovirus Type-4, Adenovirus Type-8 and Adenovirus Type-19 and Cytomegalovirus when exposed in suspension for 1, 2, 5, and 10 minutes. The presence of virus (infectivity) was determined by monitoring the virus specific cytopathic effect (CPE) on an appropriate indicator cell line, rabbit kidney. Results are reported as Percent (%) Reduction in virus titer as compared to the corresponding virus control titer (Table 1). The titer of the virus controls were 7.5 log10 following the one minute exposure time; 7.0 log10 following the two minute exposure time; and 7.75 log10 following both the five and ten minute exposure times.

The test system of another assay is Adenovirus Type-19. Description: Viral Suspension Assay, Adenovirus Type-19. The class given is cell-based. As to conditions: for Percent Reduction (%) Adenovirus type 19: 1, 2, 5 and 10 minutes exposure. As to the method: as §1
In a further assay the test system is Adenovirus Type-8. Description: Viral Suspension Assay, Adenovirus Type-8. It counts as cell-based. The method, then: as §1
Assay [1] concerns Herpes simplex virus type 1. Description: HSV-1 Viral Suspension Assay. The class given is cell-based. As to the method:
as §1, with “Herpes simplex virus type 1” for “Adenovirus Type-4, Adenovirus Type-8 and Adenovirus Type-19 and Cytomegalovirus”

The next assay relates to Adenovirus Type-4. Briefly: Viral Suspension Assay, Adenovirus Type-4. It counts as cell-based. The method, then: as §1
Assay [2] has as its system Acanthamoeba keratitis. Particulars: in combination with propamidine isothionate (Brolene), hexamidine (Desomodine), or neomycin; cited from earlier work.
Assay [3] relates to experimental Aspergillus keratitis. Particulars: 0.02%; cited from earlier work.
Assay [4] relates to Acanthamoeba keratitis. As to conditions: bilateral case, one treatment per eye; cited from earlier work.
The mark [5] stands for this setting: Alexidine 30 ppm, 1 minute exposure.
[6] abbreviates: Alexidine 30 ppm, 2 minutes exposure.
The mark [7] stands for this setting: Alexidine 30 ppm, 10 minutes exposure.
Where [8] appears, read: Alexidine 99 ppm, 1 minute exposure.
[9] abbreviates: Alexidine 99 ppm, 2 minutes exposure.
Where [10] appears, read: Alexidine 99 ppm, 5 minutes exposure.
[11] abbreviates: Alexidine 99 ppm, 10 minutes exposure.
The mark [12] stands for this setting: Alexidine 30 ppm, 5 minutes exposure.

Take `CCCCC(CC)CNC(=N)NC(=N)NCCCCCCNC(=N)NC(=N)NCC(CC)CCCC` (centres unmarked) [Alexidine, 1,1′-Hexamethylene-bis [5-(2-ethylhexyl)biguanide]]: the “Percent Reduction (%) Cytomegalovirus” value stood at 43.8% with Cytomegalovirus (setting [5]); 68.4% in the assay on Cytomegalovirus (setting [6]); 43.8% in the assay with Cytomegalovirus (setting [7]); 98.2% with Cytomegalovirus (setting [8]); 99.0% with Cytomegalovirus (setting [9]); 99.8% in the assay on Cytomegalovirus (setting [10]). For the same molecule, the “Percent Reduction (%) Cytomegalovirus” value with Cytomegalovirus (setting [11]) was 99.98%. In addition, the “effectiveness against Cytomegalovirus, in words” value with Cytomegalovirus (at both 30 ppm and 99 ppm) is given as “somewhat effective”. For the same molecule, in the assay on Adenovirus Type-19, the “effectiveness against the tested strain of Adenovirus Type-19, in words” value was “did not appear to be effective”. Moreover, the “Percent Reduction (%) Adenovirus type 19” value with Adenovirus Type-19 (Alexidine 30 ppm) and with Adenovirus Type-19 (Alexidine 99 ppm) was “No reduction” throughout. Moreover, the “Percent Reduction (%) Adenovirus type 8” value with Adenovirus Type-8 (setting [5]) stood at 96.8%; with Adenovirus Type-8 (setting [6]), 94.4%; in the assay on Adenovirus Type-8 (setting [12]), 82.2%; with Adenovirus Type-8 (setting [7]), 90.0%; in the assay on Adenovirus Type-8 (setting [8]) it was 82.2%; with Adenovirus Type-8 (setting [9]) it was 82.2%. Besides, the “Percent Reduction (%) Adenovirus type 8” value in the assay on Adenovirus Type-8 (setting [10]) and in the assay on Adenovirus Type-8 (setting [11]) was 90.0% each time. For the same molecule, the “effectiveness against Adenovirus Type-8, in words” value with Adenovirus Type-8 (at both 30 ppm and 99 ppm) is listed as “somewhat effective”. The “antimicrobial potency against Herpes Simplex-1, summary in words” value in assay [1] is reported as “potent antimicrobial agent”. The “Percent Reduction of Herpes simplex virus type 1” value in assay [1] (Alexidine 30 ppm, 1 minute exposure in suspension, vs virus control titer) is reported as 99.99%; in assay [1] (setting [6]), 99.99%; in assay [1] (setting [12]) it was 99.9994%; in assay [1] (setting [7]), “≧100%”; in assay [1] (setting [8]), 99.999%; in assay [1] (setting [9]), 99.994%. For the same molecule, the “Percent Reduction of Herpes simplex virus type 1” value is listed as 99.9999% in assay [1] (setting [10]) and “≧100%” in assay [1] (setting [11]). Besides, the “effectiveness against herpes simplex type-1 virus (HSV-1), in words” value in assay [1] (at both 30 ppm and 99 ppm) is “effective agents”. Also, the “Percent Reduction (%) Adenovirus type 4” value with Adenovirus Type-4 (setting [5]) worked out at 43.8%; in the assay with Adenovirus Type-4 (setting [12]) it was 82.2%; in the assay with Adenovirus Type-4 (setting [7]) it was 68.4%; in the assay with Adenovirus Type-4 (setting [8]), 68.4%; in the assay with Adenovirus Type-4 (setting [10]), 43.8%; with Adenovirus Type-4 (setting [11]) it was 68.4%. For the same molecule, the “effectiveness against Adenovirus Type-4, in words” value in the assay on Adenovirus Type-4 (at both 30 ppm and 99 ppm) is reported as “somewhat effective”.
With `N=C(NCCCCCCNC(=N)NC(=N)Nc1ccc(Cl)cc1)NC(=N)Nc1ccc(Cl)cc1` [chlorhexidine gluconate, 1,1′-hexamethylene-bis[5-(p-chlorophenyl)biguanide]], in the assay on Acanthamoeba keratitis [2], the “response of Acanthamoeba keratitis to treatment” value is “respond well”.
As to “poly(hexamethylene biguanide) [polyhexamethylene biguanide]”, the “efficacy in experimental Aspergillus keratitis” value in assay [3] is given as “moderately effective”. Also, in the assay on Acanthamoeba keratitis [2], the “response of Acanthamoeba keratitis to treatment” value is on record as “respond well”. In addition, in the assay with Acanthamoeba keratitis [4], the “treatment of recurrences of Acanthamoeba keratitis” value is listed as “successfully treated”.

The values are drawn from patent publication US20070141091A1, “BIGUANIDE OINTMENT AND METHOD OF TREATMENT AND PREVENTION OF INFECTIONS” (priority 2005, published 2007).
